Where a SMILES comes first, the peptide text is derived from it. [ ]: non-standard residue; d: D form. The star is where a group is joined. 5FAM = O=C1OC2(c3ccc(O)cc3Oc3cc(O)ccc32)c2ccc(C(=O)*)cc21
Legend:
MDA-MB-231 cells = assay: Single-cell migration on collagen (IncuCyte video microscopy, DiPer MSD analysis), WT cells; type: cell-based, human; conditions: WT + mB27, 4 µM; Std. Error 0.6565; WT + vehicle slope 14.65
Protocol: (§1) For the migration assay, plates were coated with 15 µg/mL rat tail collagen type 1 (BD-Biosciences, Franklin Lakes, NJ, USA). Cells were seeded at 1000 cells per well. Plates were imaged using the IncuCyte Live-Cell Analysis System (Essen Bioscience, Ann Arbor, MI, USA) every 10 min for 24 h. Cell migration was tracked using the “Track Object” program in Metamorph 7.8 (Molecular Devices, LLC., San Jose, CA, USA). The resulting coordinates were analyzed with the DiPer program to measure speed and directional persistence of migration. Experiments were conducted in triplicate, each with at least 20 cells per genotype. The results are presented as the mean ± standard error of the mean. […]
(§2) Migration propensity of calpain-deficient cells was measured by IncuCyte video microscopy of single-cell trajectories on a collagen substrate, which were then analyzed according to an established protocol using three measures of migration: (1) speed of migration (a raw value of displacement from frame to frame); (2) directionality (a ratio of cell displacement to path); and (3) mean square displacement (MSD, how much area a migrating cell has covered).
(§3) To evaluate the effect of this calpain inhibitor, we first measured MDA-MB-231 cancer cell migration in the presence of 4 µM mB27 (Figure 5a,b). […] A thorough quantification and statistical analysis of cell migration are presented in Supplementary Information 12.

[1] = test system: CAPNS1 KO MDA-MB-231 cells; assay: Single-cell migration on collagen (IncuCyte video microscopy, DiPer MSD analysis), CAPNS1 KO cells; type: cell-based, human
Protocol: as §1, §2, §3

WT MDA-MB-231 tumors = assay: Orthotopic engraftment resect-and-wait model of mammary tumor growth and lung metastasis; type: in vivo, Rag2-/- IL2Rγc-/- mice; conditions: n = 10
Protocol: Cells were washed, counted, and resuspended in PBS to achieve a concentration of 1,000,000 cells in 40 µL and placed on ice and supplemented with Growth Factor Reduced Matrigel (Corning Inc., Corning, NY, USA, catalog number 354,230) in a 10:40 Matrigel/cell suspension ratio. The resulting mixture was maintained on ice until the engraftment. Matrigel was included in the engraftment suspension to promote initial cell retention in the engrafted bolus in the mammary fat pad and to ensure consistent tumor onset. While MDA-MB-231 cells can form tumors without matrix in Rag2^-/- IL2Rγc^-/- mice, the addition of Matrigel could reduce experimental variability and mimic the basement membrane or extracellular matrix components of the tumor microenvironment.
All animal procedures were approved by the university animal care committee in accordance with guidelines from the Canadian Council on Animal Care. […]
The wound clips were removed one week after the engraftment surgery, and the tumor size was measured daily until it reached 600 mm^3. […] When tumors reached the maximum volume (19 to 22 days after the engraftment surgery, determined individually for every mouse), they were resected by recovery surgery, and mice were then monitored for 12 days before being euthanized with CO2 and cervical dislocation and assessed for metastasis. […]

CC[C@H](C)[C@H](NC(=O)[C@H](Cc1ccc(O)cc1)NC(=O)[C@@H](NC(=O)[C@H](CO)NC(=O)[C@H](CO)NC(=O)[C@H](CCSC)NC(=O)[C@H]1CCCN1C(=O)[C@@H](CC(=O)O)NC(=O)c1ccc2c(c1)C(=O)OC21c2ccc(O)cc2Oc2cc(O)ccc21)[C@@H](C)O)C(=O)N[C@@H](CCC(=O)O)C(=O)N[C@@H](CCC(=O)O)C(=O)N[C@@H](CC(C)C)C(=O)NCC(=O)N[C@@H](CCCCN)C(=O)N[C@@H](CCCNC(=N)N)C(=O)N[C@@H](CCC(=O)O)C(=O)N[C@H](C(=O)N[C@H](C(=O)N[C@H](C(=O)N1CCC[C@H]1C(=O)N1CCC[C@H]1C(=O)N[C@@H](CCCCN)C(=O)N[C@@H](Cc1ccc(O)cc1)C(=O)N[C@@H](CCCNC(=N)N)C(=O)N[C@@H](CCC(=O)O)C(=O)N[C@@H](CC(C)C)C(=O)N[C@@H](CC(C)C)C(=O)N[C@@H](C)C(=O)N[C@@H](CCCNC(=N)N)C(=O)N[C@@H](CCCNC(=N)N)C(=O)N[C@@H](CCCNC(=N)N)C(=O)N[C@@H](CCCNC(=N)N)C(=O)N[C@@H](CCCNC(=N)N)C(=O)N[C@@H](CCCNC(=N)N)C(=O)N[C@H](CCCNC(=N)N)C(=O)N[C@H](CCCNC(=N)N)C(=O)N[C@H](CCCNC(=N)N)C(=O)O)[C@@H](C)CC)[C@@H](C)O)C(C)C [mB27] (5FAM-[dD][dP]MSSTYIEELGKREVTIPPKYRELLARRRRRR[dR][dR][dR]-OH; N-terminus and C-terminus assumed)
Best-fit slope of MSD (MDA-MB-231 cells): 7.652 | Best-fit slope of MSD ([1]; CAPNS1 KO + mB27, 4 µM, Std. Error 0.4558, CAPNS1 KO + vehicle slope 3.642): 3.365 | Effect of peptide on migration of CAPNS1 KO cells (in words) ([1]; CAPNS1 KO MDA-MB-231 cells, 4 µM peptide, ANCOVA p = 0.6134): no effect | Tumor growth rate (WT MDA-MB-231 tumors; 5 mg/kg/day intraperitoneally for 14 days from 50 mm^3 to 600 mm^3 tumor volume, vehicle 0.431 ± 0.046, p = 0.8554): 0.428 ± 0.024 mm diameter per day | Lung metastasis (WT MDA-MB-231 tumors; 5 mg/kg/day intraperitoneally for 14 days, tumor resection at 600 mm^3, lungs assessed 12 days later, vehicle 1.12 ± 1.35, p = 0.102 (not significant)): 0.34 ± 0.20 metastases per mm^2

— paper PMC12427806, “Calpain-1 and Calpain-2 Promote Breast Cancer Metastasis” (Cells, 2025)
